{"source": "patent US20250144250A1", "about": "“PH-SENSITIVE FLUOROPHORES” (The General Hospital Corporation, priority 2022, published 2025)", "origin": "cited, not measured here", "conditions": "in DMSO; cited from earlier work"}
{"smiles": "CC1(C)C(/C=C/C=C/C=C/C=C2\\N(CCCCS(=O)(=O)O)c3ccc4ccccc4c3C2(C)C)=[N+](CCCCS(=O)(=O)[O-])c2ccc3ccccc3c21", "note": "[ICG, indocyanine green]", "values": [{"measurement": "fluorescence QY of calibration standard", "value": 13, "unit": "%"}]}
